Columns and labels:
[1] = target: T1, Aurora kinase A (Homo sapiens) (UniProt O14965); assay: Inhibition of AURKA (unknown origin) assessed as remaining activity at 1 uM by Kinome scan method relative to control
T1 sequence (whole entry): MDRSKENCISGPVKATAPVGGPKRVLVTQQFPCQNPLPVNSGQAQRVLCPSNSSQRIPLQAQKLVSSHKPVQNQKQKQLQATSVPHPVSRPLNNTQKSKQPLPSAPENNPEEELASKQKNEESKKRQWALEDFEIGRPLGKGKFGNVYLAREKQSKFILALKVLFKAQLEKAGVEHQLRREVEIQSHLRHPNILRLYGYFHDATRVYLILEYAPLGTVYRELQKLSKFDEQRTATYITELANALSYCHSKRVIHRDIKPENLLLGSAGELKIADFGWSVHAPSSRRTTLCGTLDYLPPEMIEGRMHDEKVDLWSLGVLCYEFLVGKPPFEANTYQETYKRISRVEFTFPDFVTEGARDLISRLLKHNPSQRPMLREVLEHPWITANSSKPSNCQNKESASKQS

[2] = target: T2, Serine/threonine-protein kinase Chk1 (Homo sapiens) (UniProt O14757); assay: Inhibition of CHEK1 (unknown origin) assessed as remaining activity at 1 uM by Kinome scan method relative to control
T2 sequence (whole entry): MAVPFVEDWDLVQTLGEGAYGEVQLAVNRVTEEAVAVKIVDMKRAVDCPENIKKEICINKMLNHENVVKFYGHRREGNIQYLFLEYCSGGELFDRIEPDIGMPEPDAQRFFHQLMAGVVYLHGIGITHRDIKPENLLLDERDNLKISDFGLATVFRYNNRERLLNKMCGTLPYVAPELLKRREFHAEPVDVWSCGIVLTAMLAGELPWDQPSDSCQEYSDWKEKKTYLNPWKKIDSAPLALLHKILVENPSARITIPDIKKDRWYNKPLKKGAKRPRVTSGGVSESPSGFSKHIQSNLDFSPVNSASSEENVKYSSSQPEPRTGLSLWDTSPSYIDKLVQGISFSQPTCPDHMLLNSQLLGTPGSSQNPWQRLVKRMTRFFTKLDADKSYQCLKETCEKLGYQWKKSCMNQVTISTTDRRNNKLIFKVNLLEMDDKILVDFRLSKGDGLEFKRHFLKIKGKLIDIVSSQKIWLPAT

[3] = target: Insulin receptor-related protein (Homo sapiens) (UniProt P14616); assay: Inhibition of INSRR (unknown origin) assessed as remaining activity at 1 uM by Kinome scan method relative to control
[4] = target: T3, Myosin light chain kinase (Homo sapiens) (UniProt Q32MK0); assay: Inhibition of MLCK (unknown origin) assessed as remaining activity at 1 uM by Kinome scan method relative to control
T3 sequence (whole entry): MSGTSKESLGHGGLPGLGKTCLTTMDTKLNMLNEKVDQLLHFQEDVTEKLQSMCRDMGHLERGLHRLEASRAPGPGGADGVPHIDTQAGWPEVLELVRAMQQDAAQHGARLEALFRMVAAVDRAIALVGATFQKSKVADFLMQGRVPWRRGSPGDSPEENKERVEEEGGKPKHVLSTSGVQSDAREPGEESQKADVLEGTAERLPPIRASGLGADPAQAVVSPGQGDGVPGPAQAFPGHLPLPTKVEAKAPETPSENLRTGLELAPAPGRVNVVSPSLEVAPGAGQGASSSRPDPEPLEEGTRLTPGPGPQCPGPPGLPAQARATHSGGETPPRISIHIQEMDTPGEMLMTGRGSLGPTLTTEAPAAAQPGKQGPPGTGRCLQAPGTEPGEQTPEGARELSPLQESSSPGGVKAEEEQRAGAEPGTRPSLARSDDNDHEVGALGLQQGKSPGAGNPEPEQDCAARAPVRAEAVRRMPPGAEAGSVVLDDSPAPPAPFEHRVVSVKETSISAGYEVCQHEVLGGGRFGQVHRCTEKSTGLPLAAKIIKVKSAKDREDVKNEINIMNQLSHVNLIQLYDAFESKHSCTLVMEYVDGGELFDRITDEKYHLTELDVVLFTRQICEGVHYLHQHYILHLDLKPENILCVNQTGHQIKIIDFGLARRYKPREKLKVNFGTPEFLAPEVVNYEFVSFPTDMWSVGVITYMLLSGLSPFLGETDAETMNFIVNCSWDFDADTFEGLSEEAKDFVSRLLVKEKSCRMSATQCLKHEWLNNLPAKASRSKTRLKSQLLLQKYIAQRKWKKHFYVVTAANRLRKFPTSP

[5] = target: T4, Serine/threonine-protein kinase PLK4 (Homo sapiens) (UniProt O00444); assay: Inhibition of PLK4 (unknown origin) assessed as remaining activity at 1 uM by Kinome scan method relative to control
T4 sequence (whole entry): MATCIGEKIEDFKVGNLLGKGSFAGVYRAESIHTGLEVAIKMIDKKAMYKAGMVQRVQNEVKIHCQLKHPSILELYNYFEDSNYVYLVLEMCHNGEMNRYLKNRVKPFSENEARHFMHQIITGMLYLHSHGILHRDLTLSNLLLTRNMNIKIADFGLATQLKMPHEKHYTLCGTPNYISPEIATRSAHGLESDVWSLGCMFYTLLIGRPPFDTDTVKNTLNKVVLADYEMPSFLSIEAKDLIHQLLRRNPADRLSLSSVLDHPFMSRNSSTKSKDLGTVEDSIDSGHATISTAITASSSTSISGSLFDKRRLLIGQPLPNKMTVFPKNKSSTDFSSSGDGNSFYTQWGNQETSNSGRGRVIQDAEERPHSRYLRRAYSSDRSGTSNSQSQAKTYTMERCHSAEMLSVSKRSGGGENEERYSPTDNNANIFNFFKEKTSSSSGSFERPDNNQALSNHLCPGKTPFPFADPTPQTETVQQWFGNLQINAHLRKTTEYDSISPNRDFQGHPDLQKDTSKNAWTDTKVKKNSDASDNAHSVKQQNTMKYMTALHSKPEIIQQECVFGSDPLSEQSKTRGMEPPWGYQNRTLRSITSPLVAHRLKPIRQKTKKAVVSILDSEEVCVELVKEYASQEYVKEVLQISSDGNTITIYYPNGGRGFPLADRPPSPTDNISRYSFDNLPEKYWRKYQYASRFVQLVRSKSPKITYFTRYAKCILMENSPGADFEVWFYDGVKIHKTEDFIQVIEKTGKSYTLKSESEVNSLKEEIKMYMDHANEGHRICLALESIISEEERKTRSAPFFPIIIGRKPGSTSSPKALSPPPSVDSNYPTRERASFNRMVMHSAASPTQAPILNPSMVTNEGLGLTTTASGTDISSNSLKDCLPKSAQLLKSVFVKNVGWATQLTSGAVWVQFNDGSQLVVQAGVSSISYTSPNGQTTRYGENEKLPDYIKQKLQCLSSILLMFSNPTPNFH

[6] = target: RAF proto-oncogene serine/threonine-protein kinase (Homo sapiens) (UniProt P04049); assay: Inhibition of RAF1 (unknown origin) assessed as remaining activity at 1 uM by Kinome scan method relative to control
[7] = target: Serine/threonine-protein kinase 25 (Homo sapiens) (UniProt O00506); assay: Inhibition of YSK1 (unknown origin) assessed as remaining activity at 1 uM by Kinome scan method relative to control
Sequence of Serine/threonine-protein kinase 25 (Homo sapiens) (O00506 whole entry, looked up): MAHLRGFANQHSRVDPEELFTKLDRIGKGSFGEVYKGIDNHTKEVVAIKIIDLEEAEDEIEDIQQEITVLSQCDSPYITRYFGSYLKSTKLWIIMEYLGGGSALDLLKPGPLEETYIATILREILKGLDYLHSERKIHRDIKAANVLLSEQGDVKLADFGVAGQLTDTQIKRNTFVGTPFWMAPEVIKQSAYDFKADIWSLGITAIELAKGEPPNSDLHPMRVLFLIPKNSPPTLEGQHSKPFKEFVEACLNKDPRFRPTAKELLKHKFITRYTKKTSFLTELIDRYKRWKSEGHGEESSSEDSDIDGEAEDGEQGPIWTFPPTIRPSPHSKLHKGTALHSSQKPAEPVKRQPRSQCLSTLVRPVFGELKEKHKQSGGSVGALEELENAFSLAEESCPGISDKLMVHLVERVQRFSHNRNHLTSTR

Sequence of Insulin receptor-related protein (Homo sapiens) (P14616 27-742 limits assumed): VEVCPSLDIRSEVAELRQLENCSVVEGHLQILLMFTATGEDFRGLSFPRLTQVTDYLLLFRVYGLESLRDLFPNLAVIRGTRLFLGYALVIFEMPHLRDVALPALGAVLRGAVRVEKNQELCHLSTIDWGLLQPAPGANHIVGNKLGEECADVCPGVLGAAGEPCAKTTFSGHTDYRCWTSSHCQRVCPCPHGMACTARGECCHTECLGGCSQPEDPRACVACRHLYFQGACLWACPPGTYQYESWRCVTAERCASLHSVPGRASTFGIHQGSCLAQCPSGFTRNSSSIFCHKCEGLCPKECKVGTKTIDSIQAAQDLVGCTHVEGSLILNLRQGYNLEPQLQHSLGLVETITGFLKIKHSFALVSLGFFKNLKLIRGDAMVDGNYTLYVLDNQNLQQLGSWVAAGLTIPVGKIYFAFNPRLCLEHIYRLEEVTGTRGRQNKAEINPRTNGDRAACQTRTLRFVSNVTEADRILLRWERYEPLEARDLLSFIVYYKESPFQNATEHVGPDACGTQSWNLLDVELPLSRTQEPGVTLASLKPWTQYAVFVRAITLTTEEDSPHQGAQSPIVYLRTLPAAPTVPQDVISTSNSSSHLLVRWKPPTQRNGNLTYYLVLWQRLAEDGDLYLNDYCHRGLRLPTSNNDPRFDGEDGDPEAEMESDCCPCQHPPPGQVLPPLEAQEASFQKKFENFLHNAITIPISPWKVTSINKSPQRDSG
Sequence of Insulin receptor-related protein (Homo sapiens) (P14616 747-1297 limits assumed): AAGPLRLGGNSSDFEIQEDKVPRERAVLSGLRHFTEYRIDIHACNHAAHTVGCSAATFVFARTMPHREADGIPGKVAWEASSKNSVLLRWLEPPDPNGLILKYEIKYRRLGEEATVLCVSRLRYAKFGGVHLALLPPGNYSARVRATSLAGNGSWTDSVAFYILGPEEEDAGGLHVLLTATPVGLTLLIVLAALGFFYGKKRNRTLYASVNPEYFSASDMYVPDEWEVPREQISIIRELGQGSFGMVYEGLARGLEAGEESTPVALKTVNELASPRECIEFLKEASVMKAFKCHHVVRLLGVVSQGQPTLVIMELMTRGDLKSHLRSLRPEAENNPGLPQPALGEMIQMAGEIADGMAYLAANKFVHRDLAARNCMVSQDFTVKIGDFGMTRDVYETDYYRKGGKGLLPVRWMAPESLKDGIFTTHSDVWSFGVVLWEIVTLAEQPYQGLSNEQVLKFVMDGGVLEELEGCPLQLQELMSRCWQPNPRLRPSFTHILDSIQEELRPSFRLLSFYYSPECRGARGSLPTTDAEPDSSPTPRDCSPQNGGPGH
Sequence of RAF proto-oncogene serine/threonine-protein kinase (Homo sapiens) (P04049 whole entry): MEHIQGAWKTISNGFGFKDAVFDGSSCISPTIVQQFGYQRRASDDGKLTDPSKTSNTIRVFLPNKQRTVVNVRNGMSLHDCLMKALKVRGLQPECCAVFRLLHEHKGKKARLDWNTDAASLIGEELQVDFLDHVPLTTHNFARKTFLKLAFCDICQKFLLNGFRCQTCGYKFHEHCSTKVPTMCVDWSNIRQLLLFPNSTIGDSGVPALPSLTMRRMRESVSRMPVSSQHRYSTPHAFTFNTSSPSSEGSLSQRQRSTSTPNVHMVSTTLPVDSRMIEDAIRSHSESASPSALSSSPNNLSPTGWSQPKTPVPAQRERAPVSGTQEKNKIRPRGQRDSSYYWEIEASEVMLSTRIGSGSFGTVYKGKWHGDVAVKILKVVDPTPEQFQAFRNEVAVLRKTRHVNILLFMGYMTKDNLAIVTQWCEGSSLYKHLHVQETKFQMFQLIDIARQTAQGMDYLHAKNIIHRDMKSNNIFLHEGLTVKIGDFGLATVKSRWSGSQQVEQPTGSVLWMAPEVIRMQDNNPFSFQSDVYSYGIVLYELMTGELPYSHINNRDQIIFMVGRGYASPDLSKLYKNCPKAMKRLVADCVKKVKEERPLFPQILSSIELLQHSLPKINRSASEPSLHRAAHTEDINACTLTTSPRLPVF

Structure (SMILES) | Activity [1] [%] | Activity [2] [%] | Activity [3] [%] | Activity [4] [%] | Activity [5] [%] | Activity [6] [%] | Activity [7] [%]
Nc1ccccc1Nc1ccc2c(c1)CCc1ccccc1C2=O | 93 | 86 | 88 | 85 | 98 | 93 | 92
O=C1c2ccc(Nc3ccc(F)cc3F)cc2CCc2ccc(OC[C@H](O)CO)cc21 [Skepinone-L] | 100 | 94 | 100 | 100 | 97 | 100 | 100
